Source: the supplement of paper PMC10307832

Tests used:
Assay in all cases: relative viability (nuclei count vs DMSO), 5 days (fraction); higher = more cells survive
BAM7 + Trametinib = compound: CCOC1=CC=CC=C1N=NC2=C(NN(C2=O)C3=NC(=CS3)C4=CC=CC=C4)C [BAM7] + CC(=O)Nc1cccc(-n2c(=O)n(C3CC3)c(=O)c3c(Nc4ccc(I)cc4F)n(C)c(=O)c(C)c32)c1 [Trametinib] (partner 0.02 µM)
Method in brief: (§1)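 Relative viability equals treated-well nuclei counts divided by vehicle-well nuclei counts. Counts came from 4× images of lung cancer cell lines grown in 1536-well plates for 5 days after pin-tool dosing on the day after seeding. Dosing used one drug alone or a fixed anchor-drug dose plus five library-drug doses (not always all listed) in √10 steps, and values are medians of duplicate plates.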

BAM7 + Phenformin = compound: CCOC1=CC=CC=C1N=NC2=C(NN(C2=O)C3=NC(=CS3)C4=CC=CC=C4)C [BAM7] + N=C(N)NC(=N)NCCc1ccccc1 [Phenformin] (partner 250 µM)
Method in brief: as §1

[1] = compound: CCn1c(-c2nonc2N)nc2c(C#CC(C)(C)O)ncc(OC[C@H]3CCCNC3)c21 + CC(C)C[C@H](NC(=O)[C@H](Cc1ccccc1)NC(=O)c1cnccn1)B(O)O [Bortezomib] (partner 0.002 µM)
Method in brief: as §1

[2] = compound: CCn1c(-c2nonc2N)nc2c(C#CC(C)(C)O)ncc(OC[C@H]3CCCNC3)c21 + O=C(CCCCCCC(=O)Nc1ccccc1)NO [Vorinostat] (partner 1 µM)
Method in brief: as §1

Cell Line	relative viability (BAM7 + Trametinib; first compound 0.5 µM)	relative viability (BAM7 + Trametinib; first compound 5 µM)	relative viability (BAM7 + Trametinib; first compound 15.81 µM)	relative viability (BAM7 + Trametinib; first compound 50 µM)	relative viability (BAM7 + Phenformin; first compound 0.5 µM)	relative viability (BAM7 + Phenformin; first compound 5 µM)	relative viability (BAM7 + Phenformin; first compound 15.81 µM)	relative viability (BAM7 + Phenformin; first compound 50 µM)	relative viability ([1]; first compound 0.01 µM)	relative viability ([1]; first compound 0.03162 µM)	relative viability ([1]; first compound 0.1 µM)	relative viability ([1]; first compound 0.3162 µM)	relative viability ([1]; first compound 1 µM)	relative viability ([2]; first compound 0.01 µM)	relative viability ([2]; first compound 0.03162 µM)	relative viability ([2]; first compound 0.1 µM)	relative viability ([2]; first compound 0.3162 µM)	relative viability ([2]; first compound 1 µM)
201T	0.742	0.738	0.71	0.708	0.465	0.464	0.474	0.483	1.1	1.14	1.1	1.07	1.09	0.952	0.995	0.919	0.894	0.958
A549	–	–	–	–	0.161	0.213	0.219	0.216	–	–	–	–	–	–	–	–	–	–
A-427	0.765	0.809	0.752	0.911	0.401	0.323	0.288	0.35	0.975	0.991	1.08	1.01	1.01	0.857	0.858	0.844	0.783	0.889
ABC-1	–	–	–	–	0.223	0.237	0.247	0.266	0.292	0.299	0.301	0.332	0.294	1.03	–	1.06	1.08	1.23
BEN	1.04	1.1	0.851	1.05	0.257	0.248	0.286	0.294	0.713	0.803	0.661	0.73	0.696	0.635	0.617	0.569	0.56	0.667
CAL-12T	0.381	0.333	0.303	0.384	0.576	0.601	0.586	0.607	0.939	0.852	1.08	1.16	1.1	0.747	0.679	0.683	0.675	0.603
COR-L23	0.519	0.58	0.614	0.657	0.411	0.5	0.443	0.424	1.01	0.961	0.97	0.884	0.938	0.433	0.558	0.437	0.368	0.387
COR-L 105	0.404	0.525	0.466	0.272	0.516	0.503	0.551	0.534	0.82	0.783	1	0.693	0.763	0.913	0.804	0.915	0.724	0.707
Calu-6	–	–	–	–	–	–	–	–	1.01	1.06	1.1	0.998	1.12	–	–	–	–	–
ChaGo-K-1	0.894	0.895	0.853	0.842	0.425	0.351	0.393	0.394	0.972	0.795	1.01	0.99	0.954	0.758	0.757	0.777	0.724	0.776
EBC-1	–	–	–	–	–	–	–	–	0.549	0.566	0.521	0.488	0.444	–	–	–	–	–
EKVX	0.474	0.301	0.294	0.308	0.241	0.235	0.198	0.231	1.01	0.862	1.15	0.994	0.965	0.705	0.765	0.689	0.726	0.807
EMC-BAC-2	0.941	0.944	0.941	1.02	0.567	0.533	0.535	0.61	1.02	1	0.996	1.06	1.07	0.203	–	0.448	0.429	0.448
EPLC-272H	0.292	0.31	0.252	0.28	0.291	–	0.322	0.281	0.859	0.957	0.894	0.96	0.847	0.507	0.426	0.573	0.393	0.571
H3255	0.539	0.607	0.507	0.555	0.353	0.343	0.386	0.384	0.634	0.679	0.83	0.788	0.688	0.832	0.704	0.815	0.693	0.448
HARA	0.827	0.886	0.607	1.13	0.425	0.51	0.431	0.428	1.1	1.14	1.08	1.07	1.11	0.487	0.488	0.638	0.44	0.532
HCC-15	0.341	0.374	0.331	0.384	0.506	0.434	0.496	0.471	0.988	1.06	1.01	0.925	0.952	0.97	0.858	0.894	0.769	0.881
HCC-44	1.07	1.11	0.983	1.12	0.351	0.252	0.172	0.273	0.893	0.808	0.89	0.907	0.911	1.07	1.07	1.05	1.07	1.04
HCC-78	0.579	0.805	0.689	0.819	0.619	0.583	0.796	0.777	0.553	0.513	0.503	0.498	0.527	0.434	0.452	0.455	0.416	0.436
HCC-366	0.328	0.373	0.294	0.356	0.576	0.605	0.668	0.594	0.989	1.05	0.913	1.01	1.12	0.278	0.3	0.329	0.367	0.372
